Drawing on patent US12258337B2, “Bicyclic CX3CR1 receptor agonists” (Board of Regents, The University of Texas System, priority 2019, dated 2025), this text covers EC50 and Emax for 14 molecules.

pEC50: −log10 of the molar value.

The target of experiment [1] is T1, hCX3CR1 (Homo sapiens, UniProt P49238).
T1 sequence (P49238 1-355): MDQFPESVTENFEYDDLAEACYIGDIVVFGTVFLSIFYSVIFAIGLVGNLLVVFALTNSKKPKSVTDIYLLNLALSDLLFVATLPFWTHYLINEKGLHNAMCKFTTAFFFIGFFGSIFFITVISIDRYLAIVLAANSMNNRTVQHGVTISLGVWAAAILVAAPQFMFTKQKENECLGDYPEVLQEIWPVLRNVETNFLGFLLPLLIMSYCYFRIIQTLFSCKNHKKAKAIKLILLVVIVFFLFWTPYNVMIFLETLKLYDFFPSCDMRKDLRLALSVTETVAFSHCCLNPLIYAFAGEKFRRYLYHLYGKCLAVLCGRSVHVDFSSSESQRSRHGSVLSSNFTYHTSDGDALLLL
The experiment can be described thus: ChAMPion assay (CHO ChAMPion/CX3CR1 K1.6, cAMP/CNG channel, photoprotein luminescence). It counts as cell-based. Details: expressed in transfected cells; stably expresses a Ca2+ sensitive photo-protein. The settings on record: ChAMPion assay, CHO ChAMPion/CX3CR1 K1.6, Forskolin 3 μM; read-out: hCX3CR1 agonism EC50.

The target of another experiment is T2, mouse CX3CR1 receptor (Mus musculus, UniProt Q9Z0D9).
T2 construct: expressed in transfected cells; host or cells: CHO-K1 cell membranes
T2 sequence (Q9Z0D9 1-354): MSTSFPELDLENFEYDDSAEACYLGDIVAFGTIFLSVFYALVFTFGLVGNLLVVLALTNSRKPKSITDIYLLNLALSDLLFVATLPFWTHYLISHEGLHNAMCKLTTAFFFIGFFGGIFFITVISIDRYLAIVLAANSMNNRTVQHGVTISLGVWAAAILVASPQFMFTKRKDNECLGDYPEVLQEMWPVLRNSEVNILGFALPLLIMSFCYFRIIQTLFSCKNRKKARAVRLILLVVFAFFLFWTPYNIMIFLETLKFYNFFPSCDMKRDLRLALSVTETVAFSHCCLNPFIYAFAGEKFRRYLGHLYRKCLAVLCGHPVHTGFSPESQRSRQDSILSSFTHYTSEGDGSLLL
The experiment can be described thus: GTPγ[35S] Scintillation Proximity Assay, CHO-K1 cell membranes. It counts as biochemical. The procedure:
(§1) GTPγ[^35S] Scintillation Proximity Assay
(§2) Compounds were tested for agonist activity at the mouse and human CX3CR1 receptor using cell membranes from CHO-K1 cells expressing recombinant mouse or human CX3CR1. For agonist testing, membranes are mixed with GDP. In parallel, GTPγ[^35S] is mixed with the beads just before starting the reaction. The following reagents are successively added in the wells of an Optiplate (Perkin Elmer): 50 μL of test or reference ligand, 10 μL of assay buffer, 20 μL of the membranes:GDP mix, and 20 μL of the GTPγ[^35S]:beads mix. The plates are covered with a top seal, mixed on an orbital shaker for 2 min, and then incubated for 1 hour at room temperature. Then the plates are centrifuged for 10 min at 2000 rpm, incubated at room temperature 1 hour and counted for 1 min/well with a PerkinElmer TopCount reader.
In general terms: SPA uses beads or plates that emit light when radiolabelled molecules are held near them.

Experiment [2] deals with T1, hCX3CR1. Described as above. It is filed as biochemical. Details: expressed in transfected cells; host or cells: CHO-K1 cell membranes. The protocol:
as §1, §2

A word on the pEC50: it is the negative decadic logarithm of the EC50, by convention in mol/L. For the molecule `CN(CCO)CC1(CNC(=O)c2cc3c(s2)CCCCCC3)CCC1` [Example 30, N-[[1-[[2-hydroxyethyl(methyl)amino]methyl]cyclobutyl]methyl]-4,5,6,7,8,9-hexahydrocycloocta[b]thiophene-2-carboxamide], the pEC50 at hCX3CR1 [1] is 6.22.

One may read the Emax as the maximal effect, on the per cent scale that the assay sets. Consider `CC(C)(CNC(=O)c1cc2c(s1)CCCCCC2)CN1CCCC1` [Example 1, N-(2,2-dimethyl-3-pyrrolidin-1-ylpropyl)-4,5,6,7,8,9-hexahydrocycloocta[b]thiophene-2-carboxamide], for which the pEC50 is 4.38 on mouse CX3CR1 receptor, 5.89 on hCX3CR1 [2] and 5.68 at hCX3CR1 [1]. The Emax worked out at 44% at mouse CX3CR1 receptor and 60% at hCX3CR1 [2].

For the molecule `CN(C)CC1(CNC(=O)c2cc3c(s2)CCCCCC3)CC(O)C1` (centres unmarked) [Example 31, N-[[1-[(dimethylamino)methyl]-3-hydroxycyclobutyl]methyl]-4,5,6,7,8,9-hexahydrocycloocta[b]thiophene-2-carboxamide], the pEC50 on hCX3CR1 [1] was 6.05.

Consider `CN(C)CC1(CNC(=O)c2cc3c(s2)CCCCCC3)CCCC1` [Example 2, N-[[1-[(dimethylamino)methyl]cyclopentyl]methyl]-4,5,6,7,8,9-hexahydrocycloocta[b]thiophene-2-carboxamide], for which the pEC50 was 5.07 at mouse CX3CR1 receptor, 6.10 at hCX3CR1 [2] and 5.89 on hCX3CR1 [1]. The Emax is 55% at mouse CX3CR1 receptor and 80% on hCX3CR1 [2].

On to `CC(C)(CNC(=O)c1cc2c(s1)CCCCCC2)CN1CCCCC1` [Example 13, N-(2,2-dimethyl-3-piperidin-1-ylpropyl)-4,5,6,7,8,9-hexahydrocycloocta[b]thiophene-2-carboxamide], for which the negative-log EC50 (pEC50) on hCX3CR1 [1] is 5.66.

As for `CN(C)CC1(CNC(=O)c2cc3c(s2)CCCCCC3)CCC1` [Example 23, N-[[1-[(dimethylamino)methyl]cyclobutyl]methyl]-4,5,6,7,8,9-hexahydrocycloocta[b]thiophene-2-carboxamide], at hCX3CR1 [1], the pEC50 was 5.85.

For the molecule `O=C(NCC1(CN2CCC(O)CC2)CCCC1)c1cc2c(s1)CCCCCC2` [Example 28, N-[[1-[(4-hydroxypiperidin-1-yl)methyl]cyclopentyl]methyl]-4,5,6,7,8,9-hexahydrocycloocta[b]thiophene-2-carboxamide], at hCX3CR1 [1], the pEC50 is 6.10.

As to `O=C(NCC1(CN2CCCCC2)CCCC1)c1cc2c(s1)CCCCCC2` [Example 15, N-[[1-(piperidin-1-ylmethyl)cyclopentyl]methyl]-4,5,6,7,8,9-hexahydrocycloocta[b]thiophene-2-carboxamide], the pEC50 on hCX3CR1 [1] is 5.57.

Take `O=C(NCC1(CN2CCC(O)C2)CCCC1)c1cc2c(s1)CCCCCC2` (racemic) [Example 25, N-[[1-[(3-hydroxypyrrolidin-1-yl)methyl]cyclopentyl]methyl]-4,5,6,7,8,9-hexahydrocycloocta[b]thiophene-2-carboxamide]: the pEC50 on hCX3CR1 [1] is 6.15.

Turning to `O=C(NCC1(CN2CCCC2)CCC1)c1cc2c(s1)CCCCCC2` [Example 21, N-[[1-(pyrrolidin-1-ylmethyl)cyclobutyl]methyl]-4,5,6,7,8,9-hexahydrocycloocta[b]thiophene-2-carboxamide], the negative-log EC50 (pEC50) on hCX3CR1 [1] is 5.36.

Regarding `O=C(NCC1(CN2CCCC2)CCCC1)c1cc2c(s1)CCCCCC2` [Example 5, N-[[1-(pyrrolidin-1-ylmethyl)cyclopentyl]methyl]-4,5,6,7,8,9-hexahydrocycloocta[b]thiophene-2-carboxamide], the pEC50 on hCX3CR1 [1] was 5.74.

As for `O=C(NCC1(CN2CCCC2)CC(O)C1)c1cc2c(s1)CCCCCC2` (centres unmarked) [Example 32, N-[[3-hydroxy-1-(pyrrolidin-1-ylmethyl)cyclobutyl]methyl]-4,5,6,7,8,9-hexahydrocycloocta[b]thiophene-2-carboxamide], the pEC50 on hCX3CR1 [1] is 6.19.

Consider `CN(C)CC(C)(C)CNC(=O)c1cc2c(s1)CCCCCC2` [Example 70, N-[3-(dimethylamino)-2,2-dimethylpropyl]-4,5,6,7,8,9-hexahydrocycloocta[b]thiophene-2-carboxamide], for which the pEC50 on mouse CX3CR1 receptor was under 4.30; on hCX3CR1 [2], 5.39; at hCX3CR1 [1] it was 5.51. In addition, the Emax is 26% at mouse CX3CR1 receptor and 61% at hCX3CR1 [2].

As for `O=C(NCC1(CN2CCCC(O)C2)CCCC1)c1cc2c(s1)CCCCCC2` (centres unmarked) [Example 27, N-[[1-[(3-hydroxypiperidin-1-yl)methyl]cyclopentyl]methyl]-4,5,6,7,8,9-hexahydrocycloocta[b]thiophene-2-carboxamide], at hCX3CR1 [1], the pEC50 is 4.88.
